pIC50: −log10 of the molar value.
Test system: 186277-243-T-J2-PDC multi-cell spheroid viability
Assay: Anticancer human tumor 186277-243-T-J2-PDC patient-derived colon adenocarcinoma cell line growth inhibition [PI3K]
Conditions: for pIC50: curve of first compound; for viability, T/C: stronger effect = lower value
How it was run: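 Agents were dosed from a top concentration near clinical Cmax (otherwise 10 microM) in half-log decrements, alone or combined with PI3K inhibitors. The spheroids contain tumor cells plus endothelial (HUVEC) and MSC stroma; viability is measured.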
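Note: spheroids exposed to compounds for seven days before viability reading.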
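Throughout, for viability, T/C: 100% = DMSO vehicle control viability.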

With `C=CC(=O)N1CCN(c2nc(=O)n(-c3c(C)ccnc3C(C)C)c3nc(-c4c(O)cccc4F)c(F)cc23)C(C)C1` (centres undefined) + CC(Nc1ccc2c(c1)OCCn1cc(N3C(=O)OCC3C(F)F)nc1-2)C(N)=O the pIC50 (second compound 0.00316 µM) was less than 5.00, the pIC50 (second compound 0.01 µM) was less than 5.00 and the pIC50 (second compound 0.0316 µM) was less than 5.00. It also gave a pIC50 (second compound 0.1 µM) of less than 5.00, a pIC50 (second compound 0.316 µM) of 5.30 and a pIC50 (second compound 1 µM) greater than 7.50. For the same compound, the viability, T/C (second compound 0.00316 µM, first compound 0.0316 µM) was 109%, the viability, T/C (second compound 0.00316 µM, first compound 0.1 µM) was 88.5% and the viability, T/C (second compound 0.00316 µM, first compound 0.316 µM) was 94.7%. For the same compound, the viability, T/C (second compound 0.00316 µM, first compound 1 µM) was 94.9%, the viability, T/C (second compound 0.00316 µM, first compound 3.16 µM) was 109% and the viability, T/C (second compound 0.00316 µM, first compound 10 µM) was 93.9%. For the same compound, the viability, T/C (second compound 0.01 µM, first compound 0.0316 µM) was 103%, the viability, T/C (second compound 0.01 µM, first compound 0.1 µM) was 99.4% and the viability, T/C (second compound 0.01 µM, first compound 0.316 µM) was 107%. It also gave a viability, T/C (second compound 0.01 µM, first compound 1 µM) of 101%, a viability, T/C (second compound 0.01 µM, first compound 3.16 µM) of 103% and a viability, T/C (second compound 0.01 µM, first compound 10 µM) of 102%. It also gave a viability, T/C (second compound 0.0316 µM, first compound 0.0316 µM) of 104%, a viability, T/C (second compound 0.0316 µM, first compound 0.1 µM) of 102% and a viability, T/C (second compound 0.0316 µM, first compound 0.316 µM) of 105%. It also gave a viability, T/C (second compound 0.0316 µM, first compound 1 µM) of 112%, a viability, T/C (second compound 0.0316 µM, first compound 3.16 µM) of 115% and a viability, T/C (second compound 0.0316 µM, first compound 10 µM) of 87.2%. The viability, T/C (second compound 0.1 µM, first compound 0.0316 µM) was 103%, the viability, T/C (second compound 0.1 µM, first compound 0.1 µM) was 107% and the viability, T/C (second compound 0.1 µM, first compound 0.316 µM) was 88.3%. For the same compound, the viability, T/C (second compound 0.1 µM, first compound 1 µM) was 94.4%, the viability, T/C (second compound 0.1 µM, first compound 3.16 µM) was 86.6% and the viability, T/C (second compound 0.1 µM, first compound 10 µM) was 74.4%. For the same compound, the viability, T/C (second compound 0.316 µM, first compound 0.0316 µM) was 82.2%, the viability, T/C (second compound 0.316 µM, first compound 0.1 µM) was 74.8% and the viability, T/C (second compound 0.316 µM, first compound 0.316 µM) was 67.7%. The viability, T/C (second compound 0.316 µM, first compound 1 µM) was 74.7%, the viability, T/C (second compound 0.316 µM, first compound 3.16 µM) was 56.9% and the viability, T/C (second compound 0.316 µM, first compound 10 µM) was 37.4%. For the same compound, the viability, T/C (second compound 1 µM, first compound 0.0316 µM) was 48.2%, the viability, T/C (second compound 1 µM, first compound 0.1 µM) was 50.1% and the viability, T/C (second compound 1 µM, first compound 0.316 µM) was 50.9%. For the same compound, the viability, T/C (second compound 1 µM, first compound 1 µM) was 48.1%, the viability, T/C (second compound 1 µM, first compound 3.16 µM) was 32.8% and the viability, T/C (second compound 1 µM, first compound 10 µM) was 22.9%.
`Cn1ncc(Cl)c1-c1cc(C(=O)NC(CN)Cc2cccc(F)c2)sc1Cl` (centres undefined) was tested, and the viability, T/C (compound 0.0316 µM) was 89.1% [middle of 4 runs], the viability, T/C (compound 0.1 µM) was 85% [middle of 4 runs] and the viability, T/C (compound 0.316 µM) was 60.5% [middle of 4 runs]. For the same compound, the viability, T/C (compound 1 µM) was 45.4% [middle of 4 runs], the viability, T/C (compound 3.16 µM) was 46.1% [middle of 4 runs] and the viability, T/C (compound 10 µM) was 19.8% [middle of 4 runs]. For the same compound, the IC50 (curve of compound) was 1.17 µM [middle of 4 runs].
